The results in this text go back to patent publication US11162129B2, “Photoprotective mixtures as imaging reagents in sequencing-by-synthesis” (IsoPlexis Corporation, priority 2016, dated 2021).

The text on the data set: Components in various photoprotective imaging mixtures as described herein have been tested for solubility and stability against precipitation and discoloration in imaging solution formulation using […] as the base buffer.
As for `CCOC(=O)c1ccc(O)c(O)c1` [3,4-Dihydroxybenzoic Acid Ethyl Ester, 3,4-dihydroxybenzoic acid ethyl ester], the “optimal concentration window in imaging solution formulation” value (from here on “optimal concentration window”) lay within 10 to 20 mM.

As for `C[N+](C)(C)CC(O)CC(=O)[O-]` (stereo not drawn) [Carnitine, carnitine], the “optimal concentration window” value fell in the range of 5 to 50 mM.

For the molecule `Cc1c(C)c2c(c(C)c1O)CCC(C)(C(=O)O)O2` (stereo not drawn) [Trolox, 6-hydroxy-2,5,7,8-tetramethylchromane-2-carboxylic acid], the “optimal concentration window” value fell in the range of 5 to 15 mM.
